# Results published in US5129937A, “Pyridyloxypyrimidine derivatives, preparation process thereof, and herbicidal compositions containing the same as active ingredients” (Mitsui Toatsu Chemicals Incorporated, priority 1989, dated 1992).
# Columns and labels:
# [1] = test system: Barnyardgrass (Echinochloa crus-galli); experiment: Submerged Soil Treatment Test (Pre-Emergence Treatment); assay type: in vivo; conditions: 30 g ai/a, granule, observed 30 days later
# Procedure: (§1) 1/5000-are Wagner pots were filled with soil. Seeds or tubers of barnyardgrass, bulrush and Sagittaria pygmaea were seeded or planted under submerged condition. Two pairs of rice seedlings (2-3 leaf stage), which had been reared in advance, were transplanted to each pot and were allowed to germinate in a green house. Each pair consisted of two rice seedlings. On day later (before emergence of weeds), each pot was treated with a granule which had been prepared by processing a predetermined amount of the test composition in accordance with a similar method to the method described in Formulation Example 9. The state of emergence of weeds and the state of injury of rice were observed 30 days later. In the table, the degrees of damages of the test plants and the degrees of injury of rice are shown in a similar manner to Example 2.
# [2] = test system: Arrowhead sp. (Sagittaria pygmaea); experiment: as above; assay type: in vivo; conditions: 30 g ai/a, granule, observed 30 days later
# Procedure: as §1
# [3] = test system: Bulrush (Scirpus juncoides); experiment: as above; assay type: in vivo; conditions: 30 g ai/a, granule, observed 30 days later
# Procedure: as §1
# [4] = test system: ALS (acetolactate synthase); experiment: ALS (Acetolactate Synthase) Inhibition Test, pea enzyme; assay type: biochemical; conditions: enzymoreaction inhibition rate at 10 ppm (5 μg/0.5 ml)
# Procedure: (§2) To determine the selectivity in enzyme level between crops and weeds, an ALS inhibition test was conducted using pea as a representative of broadleaf crops and barnyardgrass as a representative of gramineous weeds.
# (§3) After seeds of pea and barnyardgrass were allowed to germinate at 25° C. for 8-14 days in a dark place, partially-purified suspensions (Suspensions A) of acetolactate syntase were separately obtained from seedlings in accordance with the method described in the literature, Plant Physiology, 75, 827-831. In a test tube, […], followed by the addition of 0.15 ml of a 20 mM K2 HPO4 solution and 0.25 ml of a reaction substrate medium which consisted of 40 mM of K2 HPO4, 40 mM of sodium pyruvate, 1 mM of TPP, 1 mM of MgCl2 and 20 μM of FAD so that 0.4 ml of a reaction solution (Solution B) was prepared. Added to 0.4 ml of Solution B was 0.1 ml of Suspension A. After the resultant mixture was shaken for 1 hour in a thermostat water bath controlled at 30° C., 50 μl of 6N sulfuric acid were added to terminate the reaction.
# (§4) Next, the reaction-terminated liquid mixture was transferred into a thermostat water bath controlled at 60° C. and was heated for 15 minutes. Thereafter, 0.5 ml of a 0.5% creatine solution and 0.5 ml of a 5% alkaline α-naphthol solution were added, and the resultant mixture was maintained at 60° C. for 15 minutes. As a result, the test solution developed a pink-red color. After the above operation, the absorbance of the test solution at 525 nm was measured by a spectrophotometer (Absorbance 1 of Test Compound).
# (§5) On the other hand, the absorbance (Absorbance 2 of Blank) of a solution obtained by subjecting a portion of Solution B, said portion being free of the test compound, to the above operation and the absorbance (Absorbance 3 of sulfuric acid terminated) of another solution obtained by subjecting another portion of Solution B, said portion containing 50 μl of 6N sulfuric acid as a test compound, were measured at the same time. […] [formula]
# [5] = test system: ALS (acetolactate synthase); experiment: ALS (Acetolactate Synthase) Inhibition Test, barnyardgrass enzyme; assay type: biochemical; conditions: enzymoreaction inhibition rate at 10 ppm (5 μg/0.5 ml)
# Procedure: as §2, §3, §4, §5
SMILES,Herbicidal effects Barnyardgrass (Echinochloa crus-galli) [1],Herbicidal effects Arrowhead sp. (Sagittaria pygmaea) [2],Herbicidal effects Bulrush (Scirpus juncoides) [3],Inhibition rate (%) Pea [4] [%],Inhibition rate (%) Barnyardgrass [5] [%]
"COc1cc(OC)nc(Oc2ccccc2C=O)n1 [B, reference compound]",3 (11-40 (Medium damages)),5 (0-5 (Death)),3 (11-40 (Medium damages)),72,98
"CCOC(=O)c1ncccc1Oc1nc(OC)cc(OC)n1 [A, reference compound]",5 (0-5 (Death)),4 (6-10 (Severe damages)),5 (0-5 (Death)),52,5
"COc1cc(OC)nc(Oc2cccnc2C(OC)OC)n1 [Compound No. 2, 3-(4.6-dimethoxy-2-pyrimidinyloxy)-2-pyridinecarboxaldehyde dimethylacetal]",5 (0-5 (Death)),5 (0-5 (Death)),5 (0-5 (Death)),0,81
COc1cc(OC)nc(Oc2cccnc2C2OCCO2)n1 [Compound No. 6],5 (0-5 (Death)),5 (0-5 (Death)),5 (0-5 (Death)),0,96
"CCOC(OCC)c1ncccc1Oc1nc(OC)cc(OC)n1 [Compound No. 3, 3-(4,6-dimethoxy-2-pyrimidinyloxy)-2-pyridinecarboxaldehyde diethylacetal]",5 (0-5 (Death)),5 (0-5 (Death)),5 (0-5 (Death)),0,84
CCCCOC(OCCCC)c1ncccc1Oc1nc(OC)cc(OC)n1 [Compound No. 4],5 (0-5 (Death)),5 (0-5 (Death)),5 (0-5 (Death)),0,94
COc1cc(OC)nc(Oc2cccnc2C2OCC(C)O2)n1 (centres unmarked) [Compound No. 7],5 (0-5 (Death)),4 (6-10 (Severe damages)),5 (0-5 (Death)),0,87
"COc1cc(OC)nc(Oc2cccnc2C=O)n1 [Compound No. 1, 4,6-dimethoxy-2-(2-formyl-3-pyridyloxy)pyrimidine]",4 (6-10 (Severe damages)),4 (6-10 (Severe damages)),4 (6-10 (Severe damages)),3,100
"COc1cc(OC)nc(Oc2cccnc2C(OC)OC(C)C)n1 (centres unmarked) [Compound No. 5, 3-(4.6-dimethoxy-2-pyrimidinyloxy)-2-pyridinecarboxaldehyde isopropylmethylacetal]",5 (0-5 (Death)),5 (0-5 (Death)),5 (0-5 (Death)),0,100
COc1cc(OC)nc(Oc2cccnc2C2OCCCO2)n1 [Compound No. 8],5 (0-5 (Death)),4 (6-10 (Severe damages)),4 (6-10 (Severe damages)),0,86
